Values quoted from earlier work as cited in patent US20240335377A1, “COMPOSITION AND METHODS OF TREATMENT USING TRANSDERMAL SUPPLEMENTATION” (Xygenyx Inc., priority 2023, published 2024).
Where a SMILES comes first, the peptide text is derived from it. [ ]: non-standard residue; d: D form. Cit = NC(=O)NCCC[C@H](N)C(=O)O

How the values were obtained:
skin [1] = conditions: single penetration enhancer
[2] = tested on: wide dynamic range neurons in the ventroposterolateral nucleus of the thalamus
skin [3] = conditions: topical, concentrations 0.5-5%
skin [4] = conditions: topical formulations, within four weeks of treatment
F2-isoprostane = conditions: large doses of 1600-3200 IU/day
[5] = dietary supplementation, doses up to 400 IU/day
rheumatoid arthritis = rheumatoid arthritis study
[6] = α-tocopherol taken as 1.0
[7] = even when dietary intake occurs in equal portions
markers of inflammation = conditions: supplementation, individuals with metabolic syndrome
[8] = in vivo

For `CC1CCC(C(C)C)C(O)C1` (stereo not shown) [Menthol], the “increase of transdermal drug uptake (factor)” value (skin [1]) is listed as ≥ 10.

For `CCCCCc1cc(O)c2c(c1)OC(C)(C)[C@@H]1CCC(C)=C[C@@H]21` [THC, Δ-9-tetrahydrocannabinol], the “power in mediating pain relative to morphine” value [2] is given as “ten times more powerful than morphine”.

For `C=CCCCCCCCCC(=O)N[C@@H](Cc1ccccc1)C(=O)O` [UP, Undecylenoyl phenylalanine], the “time to skin lightening effects” value (skin [3]) is given as ≥ 7 days.

For `CC12CCC(CC1)C(C)(C)O2` [eucalyptol, Eucalyptol], the “increase of transdermal drug uptake (factor)” value (skin [1]) is given as “more than 10”.

For `C/C(=C\CO)CCC[C@H](C)CCC[C@H](C)CCCC(C)C` [phytol, Phytol], the solubility in water is given as “nearly insoluble in water”.

For `CC[C@H](C)[C@H](NC(=O)[C@H](CC(=O)O)NC(=O)[C@@H](N)CCCCN)C(=O)N[C@@H](CCCNC(N)=O)C(N)=O` [tripeptide-10 citrulline, Tripeptide-10 citrulline] (H-KDI[Cit]-NH2), the improvement of suppleness (skin [4]) is given as ≤ 54%.

In the case of `Cc1c(C)c2c(c(C)c1O)CCC(C)(CCCC(C)CCCC(C)CCCC(C)C)O2` (stereo not drawn) [α-tocopherol], the “blood plasma concentration of F2-isoprostane” value (F2-isoprostane) is given as “significantly lower”, the “reduction of risk of coronary disease” value [5] is given as “up to 34%” and the “reduction of risk of developing neurodegenerative diseases such as Alzheimer's Syndrome or dementia” value ([5]; controlled trials) is given as ≤ 24%.

In the case of `C=C1CC/C=C(\C)CC[C@@H]2[C@@H]1CC2(C)C` [β-caryophyllene], the “swelling of joints and lymph nodes, circulating and articular leukocytes” value (rheumatoid arthritis) is given as “reduced swelling of joints and lymph nodes as well as the number of circulating and articular leukocytes”.

In the case of `Cc1cc(O)c(C)c2c1OC(C)(CCCC(C)CCCC(C)CCCC(C)C)CC2` (stereo not drawn) [β-tocopherol], the relative biological activity [6] is listed as 0.5.

In the case of `Cc1c(O)cc2c(c1C)OC(C)(CCCC(C)CCCC(C)CCCC(C)C)CC2` (stereo not shown) [γ-tocopherol], the relative biological activity [6] is listed as 0.1 and the “concentration in vivo relative to α-tocopherol” value [7] is listed as “roughly 10%”.

For `Cc1cc(O)cc2c1OC(C)(CCCC(C)CCCC(C)CCCC(C)C)CC2` (stereo not shown) [δ-tocopherol], the relative biological activity [6] is given as 0.03 and the “markers of inflammation in the blood” value (markers of inflammation) is given as “reduced markers of inflammation”.

For “HGH: hormone comprising a peptide chain that is synthesized in the pituitary gland”, the biological half-life [8] is listed as 10-20 minutes.
